# Experimental data as given in ChEMBL document CHEMBL3301361, “Experimental in vitro DMPK and physicochemical data on a set of publicly disclosed compounds”.
# Assay: physchem
# Conditions: octan-1-ol/water, pH 7.4
row,SMILES,logD
1,CN1CCC[C@H]1c1cccnc1 [NICOTINE],0.5
2,Cc1ccc(OC(=O)N2CCN3CCC2CC3)cc1,1.02
3,Cc1cccc([C@H](C)c2cnc[nH]2)c1C [DEXMEDETOMIDINE],2.79
4,COc1ccc2c(c1)cc(C(=O)O)n2Cc1ccc(Cl)c(Cl)c1,1.66
5,COc1cc(C(=O)N2CC[C@](CCN3CCC(C(N)=O)(c4ccccc4)CC3)(c3ccc(Cl)c(Cl)c3)C2)cc(OC)c1OC,3.23
6,CCCCCCN1CC[C@]2(C)c3cc(O)ccc3CC1[C@@H]2C,2.5
7,CN1CCN(C(=O)OC2c3nccnc3C(=O)N2c2ccc(Cl)cn2)CC1 (stereo unspecified) [ZOPICLONE],1.1
8,CN1CC=C(c2cccc(O)c2)CC1,0.53
9,CNC1=Nc2ncccc2C(c2ccns2)=NC1c1cccs1 (stereo unspecified),2.15
10,O=C(Cc1cccc2ccccc12)Nc1ccccc1,3.9
11,"CN(C(=O)Cc1ccc(Cl)c(Cl)c1)[C@H](CN1CCCC1)c1ccccc1 [ICI-199,441]",3.42
12,CC(C)C1NCCc2c1sc1ccccc21 (stereo unspecified),2.8
13,COc1cc(O)c2c(c1)/C=C/C[C@H](O)[C@H](O)C(=O)/C=C\C[C@H](C)OC2=O,1.64
14,COc1cc2c(c(OC)c1OC)-c1ccc(OC)c(=O)cc1C(NC(C)=O)CC2 (stereo unspecified),1.12
15,CCN1CCN(C(=O)c2cc3cc(F)ccc3[nH]2)CC1,2.28
16,CCCCCc1ccc(-c2nnc(N)s2)cc1,4.13

# Same assay, conditions: octan-1-ol/water, pH 7.4, LogD7.4
row,SMILES,logD
1,Cc1ccc(CO)cc1N(C)c1ccnc(Nc2cc(N3CCCCC3)cc(N3CCOCC3)c2)n1,4.2
2,O=C1c2ccc(O)cc2C(=O)N1c1cccc(O)c1,2
3,NC(=O)c1ccc(Br)cc1,1.75
4,CCCSc1c(C(=O)N(C)C2CCCCC2)cnn1-c1ccc(C(=O)O)cc1,0.59
5,COc1cc2c(Nc3ncc(NC(=O)c4ccccc4)cn3)ncnc2cc1OCCCN1CCOCC1,2.32
6,CCN1CCOc2cc(COc3ccccc3)cnc21,3.7
7,NC(=O)c1cccc(OC2CCN(CC3CC3)CC2)c1,0.49
8,NS(=O)(=O)Cc1noc2ccccc12 [ZONISAMIDE],0.55
9,O=C(NS(=O)(=O)c1ccc(NCCSc2ccccc2)c([N+](=O)[O-])c1)c1ccc(N2CCNCC2)cc1,-0.04
10,CC(C)CC(c1ccccn1)n1[nH]c(=O)c2nc3cc(Cl)ccc3c(O)c2c1=O (stereo unspecified),1.83
11,COc1ccc(-c2coc3cc(O)cc(O)c3c2=O)cc1 [BIOCHANIN],3.5
12,CNc1c(Br)cnc2[nH]c(-c3ccc(O)cc3)nc12,2.47
13,O=C(NCC1CCCCCC1)c1cc(-c2cccnc2N2CCC(C(=O)O)CC2)ccc1Cl,2.53
14,CC(=O)Nc1ccc2c(c1)c(-c1cc(NC3CC3)n3ncc(C#N)c3n1)cn2CCC(=O)O,-0.87
15,NC(=O)Nc1cc(-c2ccccc2)sc1C(=O)N[C@H]1CCCNC1,1.04
16,O=S(=O)(NCC(c1ccccc1)N1CCCCCC1)c1ccc(F)c(F)c1 (stereo unspecified),2.84
17,Cn1sc(NC(=O)c2cccc(Cl)c2)nc1=O,0.87
18,O=C1c2ccccc2C(=O)N1c1ccc(O)cc1,2
19,Clc1ccccc1CNC[C@H]1CC[C@H](CNCc2ccccc2Cl)CC1,2.74
20,Fc1cc(F)cc(-c2cc(N(CCCN3CCCCCC3)Cc3ccc4c(c3)OCO4)on2)c1,3.84
21,CC(=O)Nc1ccc(-c2ccccc2)n(CC(=O)NC(C(=O)C(F)(F)F)C(C)C)c1=O (stereo unspecified),1.78
22,NC(=O)Nc1cc(-c2cccc(F)c2F)sc1C(=O)N[C@H]1CCCNC1,1.32
23,O=c1c(-c2ccc(O)c(O)c2)coc2cc(O)ccc12,1.88

row,SMILES,logD
1,CCCSc1ncccc1C(=O)N(C)[C@@H]1[C@@H]2CC3C[C@H]1C[C@@](O)(C3)C2,2.49
2,Cc1cccc(C(N)=O)c1NC(=O)c1ccccc1,1.09
3,CN(C)CC(O)COc1ccc(Nc2nccc(Nc3ccccc3)n2)cc1 (stereo unspecified),1.58
4,O=C(Nc1nnn[nH]1)c1cc(Oc2ccccc2)c2ccccn2c1=O [QUINOTOLAST],0.67
5,Cc1sc(CN2CCNCC2)cc1C(=O)NCC12CC3CC(CC(C3)C1)C2,2.55
6,CCNCc1cnc(-c2ccc(C(=O)Nc3ccccc3N)cc2)s1,0.95
7,Cn1cncc1-c1c2c(=O)n(C3CC3)c(=O)n(CC3CC3)c2nn1Cc1ccnc2ccc(Cl)cc12,3.53
8,Cc1ncc(-c2nc(Nc3ccc(C(=O)NCCN(C)C)c(F)c3)ncc2F)n1C(C)C,2.26
9,Cc1ccc(NC(=O)c2cccc(C(F)(F)F)c2)cc1NC(=O)c1cccnc1,3.11
10,Cc1ncc(-c2ccnc(Nc3ccc(C(=O)NCCN(C)C)c(F)c3)n2)n1C(C)C,1.96
11,COc1cc(F)ccc1-c1cncc(CNC2CCC2)n1,2.23
12,O=C(CN1C(=O)C(NC(=O)c2cc3cc(Cl)sc3[nH]2)Cc2ccccc21)NO (stereo unspecified),2.4
13,COc1cc(N2CCN(C(C)=O)CC2)ccc1Nc1ncc(Cl)c(-c2cnc3cc(C#N)ccn23)n1,2.3
14,Oc1nc2ccccc2nc1NCc1ccccc1,3.3
15,CC(C)Cn1c(=O)n(C)c(=O)c2c(C(=O)N3C[C@H](O)CO3)c(Cc3c[nH]c4ncccc34)sc21,2.04
16,CN(C)C(=O)CC(NC(=O)C1(N)CCN(c2ncnc3[nH]ccc23)CC1)c1ccc(Cl)cc1 (stereo unspecified),2.4
17,N=C(N)Nc1nc2ccccc2o1,1.91
18,COc1ccc(N(C(=O)c2ccccc2)C(C)C(=O)NC2CCCC2)c(OC)c1 (stereo unspecified),3.02
19,COc1ccc(-c2coc3cc(O)cc(O)c3c2=O)cc1OC,2.8
20,Nc1nc(-c2ccc(O)cc2)cc(=O)[nH]1,1.05
21,COc1cc(N2CCN(C)CC2)c2[nH]c(C(=O)Nc3ccc(N4CCOCC4)cc3)cc(=O)c2c1,2.7
22,NC1(C(=O)NC(c2ccccc2)c2ccc(Cl)cc2)CCN(c2ncnc3[nH]ccc23)CC1 (stereo unspecified),4.1
23,O=c1oc2c(O)cccc2cc1-c1ccc(O)cc1,2.8

row,SMILES,logD
1,NC(=O)c1c(N)sc2c1CCCC2,1.84
2,CC[C@H](NC(=O)c1c([S+](C)[O-])c(-c2ccccc2)nc2cc(Br)ccc12)c1ccccc1 (stereo partly specified),3.18
3,CCCSc1ncccc1C(=O)N(C)[C@H]1[C@@H]2CC3C[C@H]1C[C@@](O)(C3)C2,2.48
4,COc1cc2c(Nc3cccc(Cl)c3Cl)c(C(N)=O)cnc2cc1NCCN(C)C,3.41
5,CC(Cc1cccc(CNCCc2c(Cl)cccc2Cl)c1)NC[C@H](O)c1ccc(O)c2[nH]c(=O)sc12 (stereo partly specified),2.41
6,O=C(CCCc1ccncc1)N1CCN(c2ccc(Cl)cc2Cl)CC1,3.93
7,Cc1ccccc1N1C(=O)c2cc(S(N)(=O)=O)c(Cl)cc2NC1C (stereo unspecified) [METOLAZONE],1.64
8,Fc1cccc(C(COCc2cc(C(F)(F)F)cc(C(F)(F)F)c2)N2CCNCC2)c1 (stereo unspecified),3.2
9,CCn1c(=O)c2c(-c3cc(C#N)cn3C)n(Cc3ccnc4ccc(Cl)cc34)nc2n(CC2CC2)c1=O,4.13
10,COc1cc2c(Nc3ccc(F)cc3F)c(C(N)=O)cnc2cc1NCCN(C)C,1.71
11,c1cc2c(cc1-c1cnc3n1CCC3)OCCO2,2.33
12,O=C1C(=O)c2cc(-c3ccsc3)ccc2-c2ccccc21,3.1
13,CN[C@@H](C)C(=O)N[C@H](C(=O)N[C@H]1CCCN(CCc2cccc(F)c2)C1)C1CCCCC1,2.64
14,O=c1oc2ccc(O)cc2cc1-c1ccccc1,3.12
15,CN(C)c1ccnc2sc(C(=O)NCc3ccccc3)c(N)c12,3.62
16,Cc1cc(Cl)ccc1OC1CCN(C[C@H](O)CNC(=O)c2c[nH]c(=O)c3cc(S(C)(=O)=O)ccc23)CC1,2.42
17,Cc1nc(CS(=O)(=O)c2ccccc2)cc(N2CCOCC2)n1,1.07
18,CCn1cc(C(=O)O)c(=O)c2cc(F)c(N3CCNCC3)cc21 [NORFLOXACIN],-0.87
19,CC(C)C(NC(=O)Cn1c(-c2cccs2)ncc(NC(=O)OCc2ccccc2)c1=O)C(=O)C(F)(F)F (stereo unspecified),2.02
20,CC#Cc1cncc(-c2cccc(C3(C4CC4)N=C(C)C(N)=N3)c2)c1 (stereo unspecified),3.3
21,CN(C)CCCNS(=O)(=O)c1ccc(Nc2nccc(-c3cnc4ccccn34)n2)cc1,1.9
22,Cn1c(=N)n(CC(=O)c2ccc(Cl)cc2)c2ccccc21,1.63
23,CC[C@H](NC(=O)c1c([S+]([O-])C(C)C)c(-c2ccccc2)nc2ccccc12)c1ccccc1 (stereo partly specified),3.81

row,SMILES,logD
1,CN(C)CC(O)COc1ccc(Nc2cc(N(CC#N)c3cc(Cl)ccc3Cl)ncn2)cc1 (stereo unspecified),2.1
2,NS(=O)(=O)c1cc(Cl)c(Cl)c(S(N)(=O)=O)c1 [DICHLORPHENAMIDE],0.92
3,C[C@H]1O[C@@H](n2cnc3c(N)nc(OCC4CCC(F)(F)CC4)nc32)[C@H](O)[C@@H]1O,1.72
4,CC(C)(C)c1ccc(-c2n[nH]c(NC(=O)c3ccccc3Cl)c2Br)cc1,4.3
5,CN1CCCCC1CCN1c2ccccc2Sc2ccc([S+](C)[O-])cc21 (stereo unspecified) [MESORIDAZINE],1.6
6,O=C(NC[C@@H](O)CN1CCC(Oc2ccc(Cl)c(Cl)c2)CC1)c1c[nH]c(=O)c2ccc(F)cc12,3.93
7,O=C(O)Cc1ccc(-c2ccc(NC(=O)c3nnc(Nc4ccccc4F)o3)cc2)cc1,1.5
8,CC(NC(=O)C1(N)CCN(c2ncnc3[nH]ccc23)CC1)c1ccccc1 (stereo unspecified),2.17
9,CC(=O)NC[C@H]1CN(c2ccc(-n3ccc(C#N)c3)c(F)c2)C(=O)O1,1.6
10,Clc1cccc2[nH]ncc12,2.5
11,CN(C)c1ccnc2sc(C(N)=O)c(N)c12,1.7
12,O=C(c1ccc(CCC(COc2ccc(-c3cccc([N+](=O)[O-])c3)cc2)N2C(=O)CCCC2=O)cc1)N1CCCC1 (stereo unspecified),2.31
13,CN(C)CC(O)COc1ccc(Nc2cc(N(CCC#N)c3cc(Cl)ccc3Cl)ncn2)cc1 (stereo unspecified),2.1
14,CC(C)C(NC(=O)Cn1c(-c2ccccc2)ccc(NC(=O)Cc2cccc(C(=O)O)c2)c1=O)C(=O)C(F)(F)F (stereo unspecified),0.68
15,CN1CC=CCC(c2cc3ccccc3o2)C1 (stereo unspecified),2.47
16,Cc1oc(S(C)(=O)=O)cc1-c1c2c(=O)n(C)c(=O)n(CC3CC3)c2nn1Cc1ccnc2ccc(Cl)cc12,3.2
17,C[C@H](NC(=O)C1(N)CCN(c2ncnc3[nH]ccc23)CC1)c1ccc(Cl)cc1,2.67
18,O=C(CC1CCN(Cc2ccn(-c3ccc(C(F)(F)F)cc3)c2)CC1)NC(c1ccc(F)cc1)c1ccc(=O)[nH]c1 (stereo unspecified),3.04
19,COc1ccc(OC)c(-c2c(F)ccc3c(N)c(C(=O)NC(C)C)nnc23)c1,3.77
20,CCN(CC)CCCNCc1cc(Cl)c2cccnc2c1O [CLAMOXYQUIN],0.72
21,C[C@@H](NC1=CC(=O)NCC1)c1ccc(Nc2ncc3cc(-c4ccncc4)ccc3n2)cc1,3.02
